Source: paper PMC10972756, “A helical fulcrum in eIF2B coordinates allosteric regulation of stress signaling” (Nature Chemical Biology, 2023)
Values belong to the molecule of their own block, whether it stands above or below them.

Experiments:
eIF2B(αβγδε)2 decamer [1] = target: T1, eIF2B(αβγδε)2 decamer (Homo sapiens, UniProt P49770+Q9UI10); assay: hydrogen-deuterium exchange mass spectrometry; format: binding; details: 20 mM HEPES, 200 mM KCl, 5 mM MgCl2, 1 mM TCEP, pH 7.9; ISRIB pocket, groove between eIF2Bβ and eIF2Bδ'; allosteric
T1 construct: gene EIF2B2; recombinant human eIF2Bα2 (pJT075) mixed with eIF2Bβγδε (pJT073 + pJT074 coexpression); heterodecamer; 2,369 unique amino acids; with Translation initiation factor eIF2B subunit alpha; Translation initiation factor eIF2B subunit gamma; Translation initiation factor eIF2B subunit epsilon

eIF2B(αβγδε)2 decamer [2] = target: T2, eIF2B(αβγδε)2 decamer (Homo sapiens, UniProt P49770+Q9UI10, Q9UI10:F443A); assay: fluorescence polarization, eIF2B titration; format: binding; details: labelled compound; 2.5 nM FAM-ISRIB; 20 mM HEPES-KOH pH 7.5, 100 mM KCl, 5 mM MgCl2, 1 mM TCEP; 25 °C; ISRIB pocket; read-out: half-maximal effective concentration
T2 construct: gene EIF2B2; recombinant human eIF2Bα2 (pJT075) mixed with eIF2Bβγδε (pJT073 + pJT074 coexpression); heterodecamer; 2,369 unique amino acids; with Translation initiation factor eIF2B subunit alpha; Translation initiation factor eIF2B subunit gamma; Translation initiation factor eIF2B subunit epsilon

eIF2B(αβγδε)2 decamer [3] = target: T3, eIF2B(αβγδε)2 decamer (Homo sapiens, UniProt P49770+Q9UI10, Q9UI10:L516A); assay: fluorescence polarization, eIF2B titration; format: binding; details: labelled compound; 2.5 nM FAM-ISRIB; 20 mM HEPES-KOH pH 7.5, 100 mM KCl, 5 mM MgCl2, 1 mM TCEP; 25 °C; ISRIB pocket; read-out: half-maximal effective concentration
T3 construct: gene EIF2B2; recombinant human eIF2Bα2 (pJT075) mixed with eIF2Bβγδε (pJT073 + pJT074 coexpression); heterodecamer; 2,369 unique amino acids; with Translation initiation factor eIF2B subunit alpha; Translation initiation factor eIF2B subunit gamma; Translation initiation factor eIF2B subunit epsilon

eIF2B(αβγδε)2 decamer [4] = target: T4, eIF2B(αβγδε)2 decamer (Homo sapiens, UniProt P49770+Q9UI10, Q9UI10:E445A); assay: fluorescence polarization, eIF2B titration; format: binding; details: labelled compound; 2.5 nM FAM-ISRIB; 20 mM HEPES-KOH pH 7.5, 100 mM KCl, 5 mM MgCl2, 1 mM TCEP; 25 °C; ISRIB pocket; read-out: half-maximal effective concentration
T4 construct: gene EIF2B2; recombinant human eIF2Bα2 (pJT075) mixed with eIF2Bβγδε (pJT073 + pJT074 coexpression); heterodecamer; 2,369 unique amino acids; with Translation initiation factor eIF2B subunit alpha; Translation initiation factor eIF2B subunit gamma; Translation initiation factor eIF2B subunit epsilon

eIF2B(αβγδε)2 decamer [5] = target: T1, eIF2B(αβγδε)2 decamer; assay: fluorescence polarization, eIF2B titration; format: binding; details: labelled compound; 2.5 nM FAM-ISRIB; 20 mM HEPES-KOH pH 7.5, 100 mM KCl, 5 mM MgCl2, 1 mM TCEP; 25 °C; ISRIB pocket; read-out: half-maximal effective concentration
eIF2Bβγδ^E445Aε tetramer = eIF2Bβγδ^E445Aε tetramer (human, UniProt P49770 2-351; Q9NR50 1-452; Q9UI10 1-523; Q13144 1-721, δE445A); assay: AUC; sedimentation velocity, 40,000 r.p.m., 20 °C, 20 mM HEPES-KOH pH 7.5, 150 mM KCl, 1 mM TCEP, 5 mM MgCl2; tetramer mixed with eIF2Bα2 (2:1 or 1:1 tetramer:dimer); continuous c(S) distribution; details: both partners purified
eIF2Bβγδ^F443Aε tetramer = eIF2Bβγδ^F443Aε tetramer (human, UniProt P49770 2-351; Q9NR50 1-452; Q9UI10 1-523; Q13144 1-721, δF443A); assay: as above; details: both partners purified
[6] = target: the molecule itself; assay: cryo-EM structure; 20 µM eIF2Bδ^L516A βγδε incubated with 11 µM eIF2Bα2 in 20 mM HEPES-KOH, 200 mM KCl, 5 mM MgCl2, 1 mM TCEP; diluted to 750 nM for grids

Molecule: O=C(COc1ccc(Cl)c(F)c1)NC12CC(NC(=O)c3cnc(C(F)F)cn3)(C1)C2 [2BAct]
hydrogen-deuterium exchange mass spectrometry (eIF2B(αβγδε)2 decamer [1]): We also observed protection in peptides at the 2BAct binding site

EC50 (eIF2B(αβγδε)2 decamer [2]): 50 ± 8 nM | EC50 (eIF2B(αβγδε)2 decamer [3]): 169 ± 34 nM | EC50 (eIF2B(αβγδε)2 decamer [4]): 30 ± 2 nM | EC50 (eIF2B(αβγδε)2 decamer [5]): 38 ± 2 nM
Molecule: FAM-ISRIB

binding result (eIF2Bβγδ^E445Aε tetramer): binds | binding result (eIF2Bβγδ^F443Aε tetramer): binds
B1: eIF2Bα2 dimer, wild type (complex, human)
chain: DDKELIEYFKSQMKEDPDMASAVAAIRTLLEFLKRDKGETIQGLRANLTSAIETLCGVDSSVAVSSGGELFLRFISLASLEYSDYSKCKKIMIERGELFLRRISLSRNKIADLCHTFIKDGATILTHAYSRVVLRVLEAAVAAKKRFSVYVTESQPDLSGKKMAKALCHLNVPVTVVLDAAVGYIMEKADLVIVGAEGVVENGGIINKIGTNQMAVCAKAQNKPFYVVAESFKFVRLFPLNQQDVPDKFKYKADTLKVAQTGQDLKEEHPWVDYTAPSLITLLFTDLGVLTPSAVSDELIKLYL
notes: also called eIFBα2
binding result [6]: binds
